The target of one data set is GLP-1R (Homo sapiens, UniProt P43220). Briefly: Agonist activity on GLP-1R, HTRF cAMP detection in stably transfected GLP-1R/HEK293 cells. The following applies: for EC50: 30 min incubation; for Max activity: relative to top concentration of reference GLP-1(7-37). It is filed as cell-based. Background: TR-FRET usually uses a lanthanide donor and a delayed reading to cut background.

Data set [1] in a line: Pharmacokinetic study in mice. It is filed as in vivo, CD-1 mice. The following applies: for clearance rate compared with PF-06882961 / exposure compared with PF-06882961: mice; for half-life: read-out: T½ (converted); for Vd: read-out: Vdss. On the procedure:
The pharmacokinetic properties of some compounds of the present invention were evaluated in mice pharmacokinetic experiments. SPF male CD-1 mice from Beijing Vital River Laboratory Animal Technology Co., Ltd were used with 6 mice in each group. Compounds were dissolved in 10% solutol/90% saline. A single intravenous administration was given at a dose of 1 mg/kg in a volume of 1 mL/kg. A single intragastric administration was given at a dose of 5 mg/kg in a volume of 1 mL/kg. Animals were fasted overnight prior to the administration and resumed feeding 4 hours after administration, ad libitum to water. Blood was collected at 0.0830, 0.25, 0.5, 1, 2, 4, 6, 8 and 24 hours after dosing. About […] of whole blood was collected from the saphenous vein of animals and placed in an EDTA-K2 anticoagulation tube. The samples were centrifuged at 4° C. and 4200 rpm for 5 min, and the plasma was transferred into a centrifuge tube and stored at −80° C. until analysis. For plasma sample analysis, the test compounds and internal standards (Labetalol & tolbutamide & Verapamil & dexamethasone & glyburide & Celecoxib) were extracted from mice plasma by protein precipitation method with acetonitrile, and the extracts were analyzed by LC/MS/MS. The measured plasma concentration-time data of individual animals were analyzed with the non-compartmental model of Phoenix WinNonlin 7.0 (Pharsight, USA) software, and the pharmacokinetic parameters of mice were obtained as follows: maximum (peak) plasma drug concentration Cmax; Peak time Tmax; half-life T1/2 and area under the plasma concentration-time curve extrapolated to infinity AUC0-inf.

Data set [2] in a line: Pharmacokinetic study in monkeys. It is filed as in vivo, cynomolgus monkeys. As to conditions: for half-life: read-out: T½ (converted). The protocol: The pharmacokinetic properties of compounds of the present invention were evaluated in monkey pharmacokinetic experiments with 3 male Non-naive cynomolgus monkeys per group. Compounds were dissolved in 10% solutol/90% saline. For single intravenous administration, the dose was 1 mg/kg, and the administration volume was 1 mL/kg. For single intragastric administration, the dose was 5 mg/kg, and the administration volume was 1 mL/kg. Animals were fasted overnight with free water before the experiment and resumed feeding 4 hours after administration. Blood was collected at 0.0830, 0.25, 0.5, 1, 2, 4, 6, 8 and 24 hours after dosing. About 0.4 mL of whole blood was collected from the animal's forearm vein and placed in an EDTA-K2 anticoagulant tube. The samples were centrifuged at 4° C. and 4200 rpm for 5 min, and the plasma was transferred to a centrifuge tube and stored at −80° C. until analysis. For plasma sample analysis, the test compounds and internal standards (Labetalol & tolbutamide & Verapamil & dexamethasone & glyburide & Celecoxib) were extracted from monkey plasma by protein precipitation method with acetonitrile, and the extracts were analyzed by LC/MS/MS. Measured plasma concentration-time data in individual animals were analyzed using the non-compartmental model of Phoenix WinNonlin 7.0 (Pharsight, USA) software to obtain the following pharmacokinetic parameters: maximum (peak) plasma drug concentration Cmax; time to peak Tmax; Half-life T1/2 and area under the plasma concentration-time curve extrapolated to infinity AUC0-inf.

Another data set has as its system cynomolgus monkeys. Kind of data set: Intravenous glucose tolerance (IVGTT) experiment in cynomolgus monkey. Format: in vivo. On the procedure: The compounds were dissolved in 10% Solutol HS15+90% Saline by vortex ultrasound. Vehicle was 10% Solutol HS15+90% Saline.
Male cynomolgus monkeys, 10-15 years old, weighing 6-13 kg. Healthy animals were selected for efficacy studies according to alanine aminotransferase (ALT), aspartate aminotransferase (AST), triglyceride (TG), total cholesterol (TC), high density lipoprotein (HDL), low density lipoprotein (LDL), glycosylated hemoglobin (HbA1c), body weight (BW).
After 1 week of acclimation, the IVGTT baseline before administration was measured, and the animals were grouped according to the insulin and blood glucose results of the IVGTT. The detailed information of treatment was as follows:
IVGTT was started after 2 hours post of compound dosing. Blood were collected-at −15 min, 0 min (before sugar administration), and 2, 5, 7, 10, 20, and 30 min after sugar administration. And the blood glucose level were measured.
Data was analyzed by Graphpad Prism 6 and the statistical method was one-way ANOVA Dunnett's test. Compared with the vehicle group, p<0.05 was considered significant difference. * means p<0.05, ** means p<0.01, *** means p<0.001.

[3] abbreviates: mouse, plasma, male CD-1 mice, 1 mg/kg iv.
[4] abbreviates: mouse, plasma, male CD-1 mice, 1 mg/kg iv, read-out: AUC0-inf.
Where [5] appears, read: mouse, plasma, male CD-1 mice, 5 mg/kg po, read-out: AUC0-inf.
[6] abbreviates: mouse, plasma, male CD-1 mice, 5 mg/kg po, read-out: Cmax.
[7] abbreviates: mouse, plasma, male CD-1 mice, 5 mg/kg po.
The mark [8] stands for this setting: cynomolgus monkey, plasma, male cynomolgus monkeys, 1 mg/kg iv.
Where [9] appears, read: male cynomolgus monkeys, 5 mg/kg po.
The mark [10] stands for this setting: single oral dose of 100 mg/kg, IVGTT 2 hours after dosing.
Setting [11] is: male cynomolgus monkeys, 1 mg/kg iv.

Chain of GLP-1R (P43220 24-463): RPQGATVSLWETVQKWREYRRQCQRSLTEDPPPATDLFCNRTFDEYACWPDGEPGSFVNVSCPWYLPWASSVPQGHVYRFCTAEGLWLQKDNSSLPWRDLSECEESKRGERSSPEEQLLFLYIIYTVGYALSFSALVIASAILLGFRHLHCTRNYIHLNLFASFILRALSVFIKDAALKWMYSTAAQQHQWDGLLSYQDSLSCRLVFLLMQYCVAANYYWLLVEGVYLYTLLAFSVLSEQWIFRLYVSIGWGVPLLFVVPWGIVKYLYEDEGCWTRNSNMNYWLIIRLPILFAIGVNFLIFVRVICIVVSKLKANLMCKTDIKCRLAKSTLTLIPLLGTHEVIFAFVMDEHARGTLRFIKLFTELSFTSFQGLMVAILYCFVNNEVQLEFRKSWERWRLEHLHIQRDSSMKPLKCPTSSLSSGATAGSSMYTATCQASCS

In general, EC50 refers to the concentration needed to bring the measured effect to its halfway point. As a reminder, the clearance is a measure of how efficiently the substance is removed, as volume per time. Broadly, the Cmax is the highest concentration seen after dosing. For `N#Cc1ccc(OCc2cccc(OC3CCN(Cc4nc5c(F)cc(C(=O)O)cc5n4C[C@@H]4CCO4)CC3)n2)c(F)c1` [Compound 56, (S)-2-((4-((6-((4-cyano-2-fluorophenoxy)methyl)pyridin-2-yl)oxy)piperidin-1-yl)methyl)-4-fluoro-1-(oxetan-2-ylmethyl)-1H-benzo[d]imidazole-6-carboxylic acid], at GLP-1R, the EC50 was determined as 0.21 nM and the Max activity is on record as 124.9%. In addition, the F in data set [1] (male CD-1 mice, 5 mg/kg po) was found to be 54.4%. In addition, in data set [1], the “clearance rate compared with PF-06882961” value is “lower clearance rates” and the “exposure compared with PF-06882961” value is “higher exposure”. In data set [1] (setting [3]), the clearance was found to be 21.7 mL/min/kg, the half-life is 2.3 h and the Vd came out at 1.2 L/kg. Moreover, the AUC(0-inf) in data set [1] (setting [4]) came to 771 ng·h/mL. In addition, the AUC(0-inf) in data set [1] (setting [5]) worked out at 2100 ng·h/mL. The Cmax in data set [1] (setting [6]) was 1640 ng/mL. Further, the half-life in data set [1] (setting [7]) was 1 h.
Take `O=C(O)c1ccc2nc(CN3CCC(Oc4cccc(COc5ccc(Cl)cc5F)n4)CC3)n(C[C@@H]3CCO3)c2c1` [Compound 49, (S)-2-((4-((6-((4-chloro-2-fluorophenoxy)methyl)pyridin-2-yl)oxy)piperidin-1-yl)methyl)-1-(oxetan-2-ylmethyl)-1H-benzo[d]imidazole-6-carboxylic acid]: the EC50 on GLP-1R came out at 0.193 nM. In addition, at GLP-1R, the Max activity amounted to 129.3%. Further, the F in data set [1] (male CD-1 mice, 5 mg/kg po) is 20.7%; in data set [2] (setting [9]), 10.4%. Moreover, the “clearance rate compared with PF-06882961” value in data set [1] and in data set [2] (monkeys) was “lower clearance rates” in each case. In addition, the “exposure compared with PF-06882961” value in data set [1] and in data set [2] (monkeys) was “higher exposure” each time. Moreover, the clearance in data set [1] (setting [3]) stood at 12 mL/min/kg; in data set [2] (setting [8]), 7.26 mL/min/kg. Moreover, the AUC(0-inf) in data set [1] (setting [4]) is 1350 ng·h/mL; in data set [1] (setting [5]), 1760 ng·h/mL; in data set [2] (cynomolgus monkey, plasma, male cynomolgus monkeys, 1 mg/kg iv, read-out: AUC0-inf) it was 2380 ng·h/mL; in data set [2] (cynomolgus monkey, plasma, male cynomolgus monkeys, 5 mg/kg po, read-out: AUC0-inf), 1240 ng·h/mL. Further, the half-life in data set [1] (setting [3]) is 1 h; in data set [1] (setting [7]), 3.2 h; in data set [2] (setting [8]), 1.34 h; in data set [2] (cynomolgus monkey, plasma, male cynomolgus monkeys, 5 mg/kg po) it was 4.01 h. Besides, the Vd in data set [1] (setting [3]) amounted to 1 L/kg; in data set [2] (cynomolgus monkey, plasma, male cynomolgus monkeys, 1 mg/kg iv, read-out: Vdss), 0.29 L/kg. Moreover, the Cmax was found to be 515 ng/mL in data set [1] (setting [6]) and 235 ng/mL in data set [2] (cynomolgus monkey, plasma, male cynomolgus monkeys, 5 mg/kg po, read-out: Cmax). Further, the “half-life compared with PF-06882961” value in data set [2] (monkeys) was “greater”. The “blood glucose level in IVGTT” value is “significant hypoglycemic effect” with cynomolgus monkeys (60 mg/kg po dose group) and “significantly lower the blood glucose level” with cynomolgus monkeys (setting [10]). The “effect on blood glucose compared with PF-06882961” value in the data set on cynomolgus monkeys (100 mg/kg po, IVGTT) is recorded as “slightly more effective”.
Take `O=C(O)c1cc(F)c2nc(CN3CCC(Oc4cccc(COc5ccc(Cl)cc5F)n4)CC3)n(C[C@@H]3CCO3)c2c1` [Compound C23, (S)-2-((4-((6-((4-chloro-2-fluorophenoxy)methyl)pyridin-2-yl)oxy)piperidin-1-yl)methyl)-4-fluoro-1-(oxetan-2-ylmethyl)-1H-benzo[d]imidazole-6-carboxylic acid]: on GLP-1R, the midpoint of the response, the EC50, lay at 0.249 nM and the Max activity was determined as 109.1%. The molecule further came in with a F in data set [1] (male CD-1 mice, 5 mg/kg po) of 45.1%. In data set [1], the “clearance rate compared with PF-06882961” value is “lower clearance rates” and the “exposure compared with PF-06882961” value is recorded as “higher exposure”. Further, in data set [1] (setting [3]), the clearance was 15 mL/min/kg, the half-life is 1 h and the Vd came to 1 L/kg. Also, the AUC(0-inf) in data set [1] (setting [4]) is 1140 ng·h/mL. In addition, the AUC(0-inf) in data set [1] (setting [5]) came out at 2580 ng·h/mL. For the same molecule, the Cmax in data set [1] (setting [6]) is 2190 ng/mL. In data set [1] (setting [7]), the half-life is 1.4 h.
For orientation: Vdss means the apparent volume that relates the amount in the body to the concentration in plasma or blood. In data set [1] (male CD-1 mice, 1 mg/kg iv), `N#Cc1ccc(COc2cccc(C3CCN(Cc4nc5ccc(C(=O)O)cc5n4C[C@@H]4CCO4)CC3)n2)c(F)c1` [PF-06882961, reference compound] yielded an AUC(0-inf) of 370 ng·h/mL, a Cl of 45.1 mL/min/kg, a T½ of 0.3 h and a Vdss of 1 L/kg. Also, in data set [1] (male CD-1 mice, 5 mg/kg po), the AUC(0-inf) was found to be 366 ng·h/mL, the Cmax was 299 ng/mL, the F is reported as 19.8% and the T½ is on record as 2.0 h. In data set [2] (setting [11]), this molecule showed an AUC(0-inf) of 1167 ng·h/mL, a Cl of 14.4 mL/min/kg, a T½ of 1.1 h and a Vdss of 0.3 L/kg. Moreover, in data set [2] (setting [9]), the AUC(0-inf) amounted to 344 ng·h/mL, the Cmax was 58.8 ng/mL, the F was found to be 5.9% and the T½ was 2.8 h. Moreover, in the data set on cynomolgus monkeys (setting [10]), the “blood glucose level in IVGTT” value is “significantly lower the blood glucose level”.

The record behind these values is US20250282757A1, “ARYL ETHER-SUBSTITUTED HETEROCYCLIC COMPOUNDS AS GLP1R AGONISTS” (MINDRANK AI LTD., priority 2021, published 2025).
